Experimental data: patent publication US8372867B2, “Insecticidal aryl isoxazoline derivatives” (Bayer CropScience AG, priority 2007, dated 2013)

What was measured:
[1] = system: Ctenocephalides felis felis; test: Efficacy against fleas Ctenocephalides felis felis on cats; format: in vivo; conditions: 0.1 ml/kg (15 mg/kg) applied as Spot-on, once on day 0, weekly reinfestation
Protocol: On study days −4 and −1 prior to treatment cats are infested with about 100 adult not fed fleas (Ctenocephalides felis felis). The fleas are released on the neck on the fur of the cats
On study day 0 the flea infestation rate is checked by counting the fleas on the animals. The number of live fleas is recorded.
After flea counting the cats are treated with the investigational product. Cats of the control group are left untreated and serve as negative control group. The investigational veterinary product is applied dermally as one spot at a dose volume of 0.1 to 0.2 ml/kg body weight. Treatment is performed only once on study day 0. Only healthy cats are treated and included in the study.
Flea counts are performed on study days 1 and/or 2 where the cats are combed and the number of live fleas recorded. The results are documented.
In weekly intervals the cats are reinfested with about 100 adult not fed fleas per cat. One and/or two days after reinfestation the cats are combed and the live fleas counted for each animal. The results are recorded.
Efficacy should be given over a three to four week period
For the calculation of the effectiveness the modified Abbott formula is used: […]

[2] = system: Ixodes ricinus; test: Efficacy against ticks (Ixodes ricinus) on cats; format: in vivo; conditions: 0.1 ml/kg (15 mg/kg) applied as Spot on, once on day 0, weekly reinfestation
Protocol: On study days −4 and/or −1 cats are sedated with a combination of the active ingredients ketaminhydrochloride and acepromazinmaleat. After all cats are sedated (approximately after 10-15 minutes) the cats are placed in single cages and 50 Ixodes ricinus ticks (25 female and 25 male) are released on the fur on the back of the cat. The cats are sleeping for about 1 h to 1.5 h and restrained from grooming and removing the ticks.
On study days −3 or 0 tick infestation rate is checked, while the cats are placed on an examination table. The area around the head, ears, eyes, neck and lateral and ventral part of the body and between the toes is checked intensively. The number of live attached engorged ticks is counted and recorded. Dead ticks are removed.
After tick counting on study day 0 treatment is performed. Cats of the control group are left untreated and serve as negative control group. The investigational veterinary product is applied as one single spot on the skin at the base of the skull. Treatment is performed only once on day 0. […]
On study day 1 and/or 2 tick counts are performed and the number of life or dead attached ticks counted and recorded. […]
In weekly intervals each cat is infested with 50 Ixodes ricinus ticks (25 female and 25 male) and tick counts are performed 1 and/or 2 days after reinfestation. Life and dead attached ticks are counted and recorded. […]

[3] = system: Spodoptera litura; test: Test against larva of Spodoptera litura (leaf dip); format: in vivo; conditions: 100 ppm of the active compound; third instar larvae; after 7 days
Protocol: Solvent: Dimethylformamide 3 parts by weight
Emulsifier: Polyoxyethylene alkyl phenyl ether 1 part by weight
(§1) To prepare an appropriate formulation of an active compound, 1 part by weight of the active compound was mixed with the aforementioned amount of the solvent containing the aforementioned amount of the emulsifier, and the mixture was diluted to a prescribed concentration with water.
Leaves of sweet potate were soaked in the test agent diluted to a prescribed concentration with water, air-dried, and placed in a dish of 9 cm in diameter. Into this dish, 10 larvae of Spodoptera litura at the third instar were released and kept in a room at constant temperature of 25° C. After 2 and 4 days, more leaves of sweet potato were added, and the number of dead larvae after 7 days was counted to calculate the death rate. In this test, the test results are presented as an average of the results of two dishes per section.

[4] = system: Aulacophora femoralis; test: Test against Aulacophora femoralis (leaf dip); format: in vivo; conditions: 100 ppm of the active compound; second instar larvae; after 7 days
Protocol: as §1
Leaves of cucumbers were soaked in a diluted aqueous solution of the prescribed concentration of an active compound prepared in the same manner as in the aforementioned tests, air-dried, and placed a plastic cup containing sterilized black soil. Into this cup, 5 larvae of Aulacophora femoralis at second instar were then released. After 7 days, the number of dead larvae was counted to calculate the death rate.

[5] = system: Amblyomma hebraeum; test: Test against Amblyomma hebraeum (nymph dip); format: in vivo; conditions: 1008 h, read-out: activity (mortality in %)
Protocol: Nymphs of the tick Amblyomma hebraeum are placed in perforated plastic beakers and immersed in aqueous compound solution for one minute. Ticks are transferred to a filter paper in a Petri dish and incubated in a climate chamber for 42 days.

[6] = system: Lucilia cuprina larvae; test: whole plant or invertebrate; conditions: in Equus caballus, read-out: activity (mortality in %)
[7] = system: Musca domestica; test: whole plant or invertebrate; conditions: read-out: activity (mortality in %)
[8] = system: Boophilus microplus; test: whole plant or invertebrate; conditions: Rhipicephalus microplus, 168 h, read-out: activity (mortality in %)
[9] = system: organic phosphorus agent- and carbamate agent-resistant Myzus persicae; test: Test against organic phosphorus agent- and carbamate agent-resistant Myzus persicae (spray); format: in vivo; conditions: 500 ppm of the active compound; adults on eggplant; 7 days at 28° C.
Protocol: as §1
About 30 to 50 adults of organic phosphorus agent- and carbamate agent-resistant Myzus persicae per seedling were inoculated to leaves of eggplants at two leaf stage cultured in a pot of 6 cm in diameter. One day after the inoculation, an ample amount of the diluted aqueous solution of the prescribed concentration of an active compound prepared in the same manner as in the aforementioned tests was sprayed with a spray gun. After the spraying, the pot was kept in a greenhouse at 28° C. for 7 days, the death rate was calculated. The test was duplicated.

[10] = system: Ctenocephalides felis; test: Test against Ctenocephalides felis (Example 5-1, blood feeding, dimethylformamide); format: in vivo; conditions: 100 ppm of the active ingredient; adults fed on treated blood
Protocol: In order to prepare an appropriate formulation of an active compound, 10 mg of the active compound is dissolved in 0.5 mL of the aforementioned solvent, and the mixture is diluted to a prescribed concentration with blood from domestic animals.
About 10 to 15 adults of Ctenocephalides felis were kept in a flea-specific container. Another container containing the blood solution containing the compound prepared as described above was covered with a laboratory film [[…]™]. The blood containing container was turned upside down and placed on the flea-specific container. This system enables Ctenocephalides felis to suck the blood in the container. The blood solution was kept at 37° C. and the flea-specific container was kept at room temperature. After a certain period of time, the death rate of Ctenocephalides felis was calculated. For this test, the death rate of 100% means death of all Ctenocephalides felis, while the death rate of 0% means that all the fleas survived.

[11] = system: Boophilus microplus; test: Test against Boophilus microplus (injection, Example 6-1, dimethylformamide); format: in vivo; conditions: dose of 20 ug/animal; injection into abdomen of fully fed adult females
Protocol: (§2) In order to prepare an appropriate formulation of an active compound, 10 mg of the active compound was dissolved in 0.5 mL of the aforementioned solvent, and the mixture was diluted to a prescribed concentration with water.
A solution of a compound formulated as above was injected into 5 fully fed adult female Boophilus microplus in their abdomen. These Boophilus microplus were transferred to a replica dish and kept in an incubating cabinet for a certain period of time.
After a certain period of time, the death rate of Boophilus microplus was calculated. In this test, the death rate of 100% means death of all Boophilus microplus, while the death rate of 0% means that all the mites survive.

[12] = system: Lucillia cuprina; test: Test against Lucillia cuprina (Example 7-1, dimethylformamide); format: in vivo; conditions: 100 ppm of the active ingredient; larvae on minced horsemeat
Protocol: as §2
About 20 to 30 larvae of Lucillia cuprina were placed into a test tube containing 1 cm^3 of minced horsemeat and 0.5 mL of an aqueous solution of a compound prepared as above.
After a certain period of time, the death rate of Lucillia cuprina was calculated. For this test, the death rate of 100% means death of all Lucillia cuprina, while the death rate of 0% means that all the flies survived.

[13] = system: Musca domestica; test: Test against Musca domestica (Example 8-1, dimethylformamide); format: in vivo; conditions: 100 ppm of the active ingredient; adults, sugar/compound soaked sponge
Protocol: In order to prepare an appropriate formulation of an active compound, 10 mg of the active compound was dissolved in 0.5 mL of the above solvent, and the resultant mixture was diluted to a prescribed concentration with water.
As a preparatory stage, a mixture of sugar and an aqueous solution of a compound prepared as above was absorbed into a sponge of a given size, and the sponge was place into a test container. 10 adult insects of Musca domestica were placed into the container, and the container was covered with a perforated cover.
After a certain period of time, the death rate of Musca domestica is calculated. In this test, the death rate of 100% means death of all Musca domestica, while the death rate of 0% means that all the flies survived.

SMILES: CC(=O)NCc1ccc(C2=NOC(c3cc(Cl)c(Cl)c(Cl)c3)(C(F)(F)F)C2)cc1Br (centres unmarked) [1-129]
- efficacy (modified Abbott formula) [1]: > 95%
- efficacy (modified Abbott formula) [2]: > 90%

SMILES: CC(=S)NCc1ccc(C2=NOC(c3cc(Cl)cc(Cl)c3)(C(F)(F)F)C2)cc1Br (centres unmarked) [1-44, N-{2-bromo-4-[5-(3,5-dichlorophenyl)-5-(trifluoromethyl)-4,5-dihydroisoxazol-3-yl]benzyl}ethanethioamide]
- death rate [3]: 100%
- death rate [4]: 100%
- mortality at 100 ppm [5]: ≥ 80%
- mortality at 100 ppm [6]: ≥ 80%
- mortality at 100 ppm [7]: ≥ 80%
- mortality at 100 ppm [8]: ≥ 80%

SMILES: CC(=O)N(Cc1ccccn1)Cc1ccc(C2=NOC(c3cc(Cl)cc(Cl)c3)(C(F)(F)F)C2)cc1C#N (centres unmarked) [1-61, N-{2-cyano-4-[5-(3,5-dichlorophenyl)-5-(trifluoromethyl)-4,5-dihydroisoxazol-3-yl]benzyl}-N-(pyridin-2-ylmethyl)acetamide]
- death rate [3]: 100%
- death rate [4]: 100%
- death rate [9]: 100%
- mortality at 100 ppm [6]: ≥ 80%
- mortality at 100 ppm [7]: ≥ 80%

SMILES: CC(=O)N(Cc1ccccn1)Cc1ccc(C2=NOC(c3cc(Cl)cc(Cl)c3)(C(F)(F)F)C2)cc1C (centres unmarked) [1-64]
- death rate [10]: more than 80%
- death rate [11]: more than 80%
- death rate [12]: more than 80%
- death rate [13]: more than 80%
